According to PubChem BioAssay AID1963958 (Molecular Pharmacology Branch, DTP, NCI, 2024):

Tested on: MDA-MB-231 multicell spheroids, viability
Test: Anticancer human tumor MDA-MB-231 cell line growth inhibition [PI3K];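 further: spheroids exposed to agents for seven days before reading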;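 on viability, T/C: percent of vehicle control luminescence with DMSO treated spheroids as 100%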
Settings: for IC50: curve of first compound; for viability, T/C: stronger effect = lower value
Procedure, shortened: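 We assembled tumor spheroids that included a stromal compartment of HUVEC and MSCs, then exposed them to targeted agents alone and together with PI3K pathway inhibitors. Concentration series descended by half-log from clinically achievable Cmax levels. Viability served as the endpoint.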

[1] = second compound 0.00316 µM, first compound 0.0316 µM
[2] = second compound 0.00316 µM, first compound 0.1 µM
[3] = second compound 0.00316 µM, first compound 0.316 µM
[4] = second compound 0.00316 µM, first compound 1 µM
[5] = second compound 0.00316 µM, first compound 3.16 µM
[6] = second compound 0.00316 µM, first compound 10 µM
[7] = second compound 0.01 µM, first compound 0.0316 µM
[8] = second compound 0.01 µM, first compound 0.1 µM
[9] = second compound 0.01 µM, first compound 0.316 µM
[10] = second compound 0.01 µM, first compound 1 µM
[11] = second compound 0.01 µM, first compound 3.16 µM
[12] = second compound 0.01 µM, first compound 10 µM
[13] = second compound 0.0316 µM, first compound 0.0316 µM
[14] = second compound 0.0316 µM, first compound 0.1 µM
[15] = second compound 0.0316 µM, first compound 0.316 µM
[16] = second compound 0.0316 µM, first compound 1 µM
[17] = second compound 0.0316 µM, first compound 3.16 µM
[18] = second compound 0.0316 µM, first compound 10 µM
[19] = second compound 0.1 µM, first compound 0.0316 µM
[20] = second compound 0.1 µM, first compound 0.1 µM
[21] = second compound 0.1 µM, first compound 0.316 µM
[22] = second compound 0.1 µM, first compound 1 µM
[23] = second compound 0.1 µM, first compound 3.16 µM
[24] = second compound 0.1 µM, first compound 10 µM
[25] = second compound 0.316 µM, first compound 0.0316 µM
[26] = second compound 0.316 µM, first compound 0.1 µM
[27] = second compound 0.316 µM, first compound 0.316 µM
[28] = second compound 0.316 µM, first compound 1 µM
[29] = second compound 0.316 µM, first compound 3.16 µM
[30] = second compound 0.316 µM, first compound 10 µM
[31] = second compound 1 µM, first compound 0.0316 µM
[32] = second compound 1 µM, first compound 0.1 µM
[33] = second compound 1 µM, first compound 0.316 µM
[34] = second compound 1 µM, first compound 1 µM
[35] = second compound 1 µM, first compound 3.16 µM
[36] = second compound 1 µM, first compound 10 µM

C=CC(=O)N1CCN(c2nc(=O)n(-c3c(C)ccnc3C(C)C)c3nc(-c4c(O)cccc4F)c(F)cc23)C(C)C1 (centres undefined) + COc1c(OCCCN2CCOCC2)ccc2c3n(c(=NC(=O)c4cnc(N)nc4)nc12)CCN3
IC50 (second compound 0.00316 µM): > 10 µM | IC50 (second compound 0.01 µM): > 10 µM | IC50 (second compound 0.0316 µM): > 10 µM | IC50 (second compound 0.1 µM): < 0.0316 µM | IC50 (second compound 0.316 µM): < 0.0316 µM | IC50 (second compound 1 µM): < 0.0316 µM | viability, T/C [1]: 94.2% | viability, T/C [2]: 91.6% | viability, T/C [3]: 104% | viability, T/C [4]: 112% | viability, T/C [5]: 122% | viability, T/C [6]: 105% | viability, T/C [7]: 83.5% | viability, T/C [8]: 82.7% | viability, T/C [9]: 85.4% | viability, T/C [10]: 93.2% | viability, T/C [11]: 103% | viability, T/C [12]: 85.8% | viability, T/C [13]: 59.1% | viability, T/C [14]: 58.9% | viability, T/C [15]: 61.6% | viability, T/C [16]: 62.5% | viability, T/C [17]: 64.8% | viability, T/C [18]: 48% | viability, T/C [19]: 42.3% | viability, T/C [20]: 45.3% | viability, T/C [21]: 46.7% | viability, T/C [22]: 46.1% | viability, T/C [23]: 45.7% | viability, T/C [24]: 33.6% | viability, T/C [25]: 31.1% | viability, T/C [26]: 31.4% | viability, T/C [27]: 32.7% | viability, T/C [28]: 31.7% | viability, T/C [29]: 27.6% | viability, T/C [30]: 26.7% | viability, T/C [31]: 24.8% | viability, T/C [32]: 24.3% | viability, T/C [33]: 23.2% | viability, T/C [34]: 26.3% | viability, T/C [35]: 29.3% | viability, T/C [36]: 25.7%

CC(Cn1ccc(-c2ccc(C#N)c(Cl)c2)n1)NC(=O)c1cc(C(C)O)[nH]n1 (centres undefined) + COc1c(OCCCN2CCOCC2)ccc2c3n(c(=NC(=O)c4cnc(N)nc4)nc12)CCN3
IC50 (second compound 0.00316 µM): > 10 µM | IC50 (second compound 0.01 µM): > 10 µM | IC50 (second compound 0.0316 µM): > 10 µM | IC50 (second compound 0.1 µM): < 0.0316 µM | IC50 (second compound 0.316 µM): < 0.0316 µM | IC50 (second compound 1 µM): < 0.0316 µM | viability, T/C [1]: 90% | viability, T/C [2]: 93.5% | viability, T/C [3]: 106% | viability, T/C [4]: 96.9% | viability, T/C [5]: 91.9% | viability, T/C [6]: 84.2% | viability, T/C [7]: 76.8% | viability, T/C [8]: 83.2% | viability, T/C [9]: 80.1% | viability, T/C [10]: 82.6% | viability, T/C [11]: 77.6% | viability, T/C [12]: 67.9% | viability, T/C [13]: 60.8% | viability, T/C [14]: 63.9% | viability, T/C [15]: 60.8% | viability, T/C [16]: 62.5% | viability, T/C [17]: 55% | viability, T/C [18]: 46.2% | viability, T/C [19]: 44.4% | viability, T/C [20]: 47.1% | viability, T/C [21]: 44.1% | viability, T/C [22]: 47.3% | viability, T/C [23]: 45.1% | viability, T/C [24]: 37.6% | viability, T/C [25]: 31.6% | viability, T/C [26]: 30.3% | viability, T/C [27]: 31.4% | viability, T/C [28]: 32% | viability, T/C [29]: 29.6% | viability, T/C [30]: 26.1% | viability, T/C [31]: 24.4% | viability, T/C [32]: 24.8% | viability, T/C [33]: 24.6% | viability, T/C [34]: 25.3% | viability, T/C [35]: 24.8% | viability, T/C [36]: 22.4%
